According to patent publication EP4817614A1, “COMPOSITION AND METHOD FOR TREATING AUTOIMMUNE DISEASES” (GNT Pharma Co., Ltd., priority 2023, dated 2025):

Assays:
[1] = system: imiquimod (IMQ)-induced lupus model; test: imiquimod (IMQ)-induced lupus (SLE) mouse model; format: in vivo, Female BALB/C mice; conditions: for spleen index (organ weight/body weight x 100%): Fig. 1b; for follicle diameter / number of splenic follicles: H&E stained spleen sections, Fig. 2b-2c; for anti-dsDNA titers: SLE mouse serum, ELISA (IgG specific), Fig. 3
Procedure: The goal of this Example was to investigate the effects of compound 2 in the imiquimod (IMQ)-induced lupus model, which is widely used as one of the induced SLE models.
Female BALB/C mice weighing 18-20 g were supplied by Saeron Bio Co., Ltd. (Korea) and acclimatized for 7 days. The animals were housed in separate cages with free access to laboratory feed and water. During the experiment, the animals were maintained at 23±3°C and 50±10% relative humidity with a 12-hour light-dark cycle. The animals were treated according to a protocol approved by the Animal Ethics Committee of GNT Pharmaceuticals. The mice were randomly divided into four groups: a normal group (n=6), a control SLE group (vehicle group, n=8), an IMQ+Compound 2 group (Compound 2 treatment group, n=4), and an IMQ+N-acetylcysteine group (NAC treatment group, n=8). All IMQ treatment groups were administered 5% imiquimod cream (Aldara Cream, Dong-A Pharmaceutical Co., Ltd.) topically to the right ear at a dose of 1.25 mg daily every other day for 4 weeks. Compound 2 (5 mg/kg, twice daily) was orally administered to the IMQ+Compound 2 group for 4 weeks, followed by concurrent IMQ treatment. N-acetyl Cysteine (150 mg/kg, once daily, adjusted to pH 7.5-8.0) was administered intraperitoneally to the IMQ+NAC group for 4 weeks along with IMQ treatment.
Mice were anesthetized with pentobarbital at the end of the experiment. Blood was collected through cardiac blood sampling. Within 30 minutes of collection, serum was separated from whole blood using EDTA by centrifugation at 12,000 g for 10 minutes. The extracted spleen was weighed, then the tissue was heated to 60°C, washed with xylene, and immersed in ethanol at gradient concentrations. The sections were H&E stained (BBC Biochemical, Washington State Mount Vernon) and then imaging was performed under a microscope. Observation was conducted through five fields of view at 10x magnification, and the number of spleen alba pulps (follicles) was counted. In addition, the diameter of the spleen alba pulp was observed using a micrometer. The diameter of the alba pulp was measured vertically and horizontally, and the average was calculated. Using a commercially available enzyme-linked immunosorbent assay (ELISA) kit (LBIS Mouse anti-dsDNA ELISA, Fujifilm Wako Shibayagi Co., Ltd., Richmond, Virginia, USA) serum anti-dsDNA (IgG specific) concentration was analyzed.

[2] = molecular target: T1, microsomal prostaglandin E synthase-1 (mPGES-1) (Homo sapiens, UniProt O14684); conditions: previous studies; cited from earlier work
T1 sequence (O14684 1-152): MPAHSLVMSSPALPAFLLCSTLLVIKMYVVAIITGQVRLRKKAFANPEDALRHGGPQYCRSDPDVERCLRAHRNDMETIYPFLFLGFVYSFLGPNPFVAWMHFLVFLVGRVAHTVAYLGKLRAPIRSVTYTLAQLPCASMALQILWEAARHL

[3] = system: imiquimod (IMQ)-induced psoriasis model; test: imiquimod (IMQ)-induced psoriasis mouse model; format: in vivo, Male BALB/C mice
Description: The goal of this Example was to investigate the effect of compound 2 in the imiquimod (IMQ)-induced psoriasis model, which is widely used as one of the induced psoriasis models.
For the experiment, psoriasis was induced using imiquimod (IMQ). The IMQ-induced psoriasis mouse model is one of the most widely used models for studying psoriasis. IMQ is a Toll-like receptor-7/8 (TLR-7/8) agonist used to treat actinic keratosis and basal cell carcinoma. It is known that topical application of IMQ cream to the skin of mice recruits immune cells and activates macrophages, monocytes, and dendritic cells to secrete inflammatory cytokines. The IMQ-induced psoriasis mouse model is known to be very similar to human psoriasis in terms of skin erythema, keratinization, epidermal changes (acanthosis), and inflammatory infiltration consisting of T cells, neutrophils, and dendritic cells.
Male BALB/C mice weighing 20-22 g were supplied by Saeron Bio Co., Ltd. (Korea) and acclimatized for 7 days. The animals were housed in separate cages with free access to laboratory feed and water. During the experiment, the animals were maintained at 23±3°C and 50±10% relative humidity with a 12-hour light-dark cycle. The animals were treated according to a protocol approved by the Animal Ethics Committee of GNT Pharmaceuticals. The mice were randomly divided into three groups: a normal group (n=5), a control psoriasis group (Vehicle group, n=8), and an IMQ+Compound 2 group (compound 2 treatment group, n=9). All IMQ treatment groups were administered 5% imiquimod cream (Aldara Cream, Dong-A Pharmaceutical Co., Ltd.) topically to shaved backs at a dose of 62.5 mg per day for 6 days. Compound 2 (5 mg/kg, twice daily) was orally administered to the IMQ+Compound 2 group for 6 days, followed by IMQ treatment.
To evaluate the anti-psoriatic effects of compound 2, the severity of psoriasis was monitored using an IMQ-induced psoriasis mouse model. The Psoriasis Skin PASI score is used to assess the severity of skin lesions in mice.
After confirming the therapeutic effect of compound 2 on psoriasis-like symptoms in mice, histological analysis was performed to identify histological changes occurring in psoriatic skin and methods of improvement.
Mice were anesthetized with pentobarbital at the end of the experiment. Blood was collected by cardiac blood sampling. Within 30 minutes of collection, serum was separated from whole blood using EDTA by centrifugation at 12,000 g for 10 minutes. The weight of the extracted spleen was measured.

[4] = system: EAE mouse model; test: experimental autoimmune encephalomyelitis (EAE) mouse model; format: in vivo, female C57BL/6 mice
Description: Multiple sclerosis (MS) is a neurological autoimmune disease in which the body's immune system attacks the cells of myelin, the protective sheath surrounding the […] of the brain and spinal cord. Until now, EAE has been well known as a preclinical model associated with multiple sclerosis. Therefore, an EAE mouse model was used to confirm the effects of compound 2 on autoimmune diseases.
The EAE mouse model was induced in 6-week-old female C57BL/6 mice. Mice were divided into three groups: 6 mice were placed in the normal group, and 8 mice were placed in the control EAE group (vehicle group) and the EAE + Compound 2 group (Compound 2 treatment group), respectively. In the mice, 200 µg of oligodendrocyte glycoprotein peptide myelin oligodendrocyte glycoprotein 35-55 (MOG35-55, Prospecbio , Israel) emulsified in 400 µg of complete Freund's adjuvant (CFA, Sigma, USA) was inoculated. The emulsion was injected into both sides of each mouse. Subsequently, 200 ng of pertussis toxin (Sigma, USA) was injected intraperitoneally on days 0 and 2. Compound 2 was injected intraperitoneally at a dose of 3.3 mg/kg every 24 hours for 7 days starting on day 9. In the control EAE group, PBS was injected intraperitoneally. Clinical signs associated with EAE were monitored daily and rated on a scale of 0 to 5: Grade 0, no apparent clinical symptoms; Grade 0.5, partial tail paralysis; Grade 1, tail paralysis or waddling gait; Grade 1.5, partial tail paralysis and waddling gait; Grade 2, tail paralysis and waddling gait; Grade 2.5, partial quadriplegia; Grade 3, unilateral limb paralysis; Grade 3.5, unilateral paralysis and partial paralysis of the other limb; Grade 4, bilateral paralysis; Grade 4.5, coma; Grade 5, death.
On day 25 after EAE induction, mice were euthanized by exposure to CO2, and spleens were extracted. RNA expression in the spleen was analyzed using Applied Biosystems™QuantStudio 5 qPCR system (Thermofisher, USA) with AMPIGENE qPCR Green Mix Hyrox (Thermofisher, USA), including […] forward and reverse primers (Bionics Korea) and SYBR green dye (Enzo Life Sciences, Farmingdale , NY, USA). The expression levels of each gene were standardized to glyceraldehyde 3-phosphate dehydrogenase (GAPDH) and compared to the expression levels of the normal or control EAE groups. To evaluate the effect of compound 2 on Treg, mouse splenocyte preparations were stained with the Treg detection kit (CD4/CD25/FoxP3) (Miltenyi Biotech, Germany) according to the manufacturer's instructions, and the Treg population was evaluated using flow cytometry. The data was analyzed using FlowJo™ 10.8.1 software.

[5] = system: mouse model of amyotrophic lateral sclerosis; conditions: previous studies, ALS mouse model; cited from earlier work
[6] = SLE mice, 4 weeks, compound 2 5 mg/kg twice daily oral, NAC 150 mg/kg once daily i.p., versus control SLE group
[7] = Masson's trichrome staining, Fig. 10
[8] = spleen RNA, qPCR, versus control EAE group, Fig. 6

For `CC(=O)N[C@@H](CS)C(=O)O` [NAC, N-acetylcysteine, reference compound], the “spleen index (organ weight/body weight x 100%)” value [1, 6] was “no significant difference”, the follicle diameter ([1]; SLE mice) was “did not show a beneficial effect” and the “number of splenic follicles” value ([1]; SLE mice) was “did not show a beneficial effect”. The anti-dsDNA titers [1] was “no effect”.
With `O=C(O)c1cc(NCCc2ccc(C(F)(F)F)cc2)ccc1O` [compound 2, 2-hydroxy-5-[2-(4-trifluoromethyl-phenyl)-ethylamino]-benzoic acid] the spleen size ([1]; SLE mice, 4 weeks, compound 2 5 mg/kg twice daily oral, NAC 150 mg/kg once daily i.p., versus control SLE group, Fig. 1a) was “smaller than that of the control SLE group”, the “spleen index (organ weight/body weight x 100%)” value [1, 6] was “significantly lower than that of the control SLE group” and the follicle diameter ([1]; SLE mice) was “significantly decreased”. The “number of splenic follicles” value ([1]; SLE mice) was “significantly increased”, the anti-dsDNA titers [1] was “significantly reduced” and the mPGES-1 inhibition [2] was “inhibitor at nanomolar concentrations”. The “epidermal thickening (acanthosis) and elongation of the rate ridges” value ([3]; H&E histopathology of skin lesions, versus IMQ alone, Fig. 9a) was “significant inhibition”, the epidermal thickness ([3]; H&E-stained dorsal skin, Fig. 9b) was “significantly reduced” and the spleen index ([3]; IMQ-induced psoriasis mice, versus control psoriasis group, Fig. 11b) was “decreased”. For the same compound, the “spleen size and weight” value ([3]; IMQ-induced psoriasis mice, Fig. 11a) was “decreased”, the “collagen pattern in the dermis” value [3, 7] was “much more compressed collagen pattern” and the psoriasis-like inflammation [3, 7] was “potently inhibited”. The PASI scores ([3]; psoriasis mice, compound 2 5 mg/kg twice daily oral for 6 days, versus control psoriasis group, Figs. 8b-8e) was “significantly lower score than the control psoriasis group”, the onset date ([4]; EAE mice, compared with control EAE group) was “similar” and the Clinical signs ([4]; EAE mice, compound 2 3.3 mg/kg i.p. every 24 hours for 7 days from day 9, scale 0 to 5, Fig. 4) was “effectively alleviated”. For the same compound, the CD206 expression [4, 8] was “significantly increased”, the “expression of IFN-γ” value [4, 8] was “lower” and the “expression of TNF-α” value [4, 8] was “lower”. For the same compound, the iNOS expression [4, 8] was “significantly lower”, the “number of Treg cells (CD4+CD25+Foxp3+)” value ([4]; splenocytes, flow cytometry, versus control EAE group, Fig. 7) was “significantly higher” and the “neuronal death, motor function and lifespan” value [5] was “block neuronal death, lateral sclerosis, and autophagocytosis formation, as well as activate motor function and increase lifespan”.
